The numbers were not newly measured in PubChem BioAssay AID1259409 (Chemical Carcinogenesis Research Information System (CCRIS), 2018), which cites them from elsewhere.

The data set relates to rodent chemically induced tumor inhibition, incidence and multiplicity. Nature of the data set: CCRIS tumor inhibitor studies. The settings on record: Dose [Inhibitor]: 0, Route [Inhibitor]: ORAL, Species: RAT, Promoter: NONE USED.

As to `CCOC1=C(O)C(=O)O[C@@H]1[C@@H](O)CO`, the “tumour outcome (control, treated, inhibition, significance)” value (Carcinogen: 2-AMINO-1-METHYL-6-PHENYLIMIDAZO[4,5-B]PYRIDINE, 105650-23-5, 1% IN DIET FOR 52 WK CONCURRENTLY WITH CARCINOGEN TREATMENT (STUDY DURATION: 52 WK), Strain/Sex: F344/FEMALE, Target Tissue: Type of Lesion: LARGE INTESTINE: ADENOMA OR CARCINOMA, Dose [Carcinogen]: 0.02% IN DIET FOR 52 WK) is 2/18 (11%), 3/18 (17%), -55%, not significant; the “tumour outcome (control, treated, inhibition, significance)” value (Carcinogen: 2-AMINO-1-METHYL-6-PHENYLIMIDAZO[4,5-B]PYRIDINE, 105650-23-5, 1% IN DIET FOR 52 WK CONCURRENTLY WITH CARCINOGEN TREATMENT (STUDY DURATION: 52 WK), Strain/Sex: F344/FEMALE, Target Tissue: Type of Lesion: MAMMARY GLAND: ADENOCARCINOMA, Dose [Carcinogen]: 0.02% IN DIET FOR 52 WK) is reported as 8/20 (40%), 6/21 (29%), 28%, not significant; the “tumour outcome (control, treated, inhibition, significance)” value (Carcinogen: DIETHYLNITROSAMINE, 55-18-5, N-METHYL-N-NITROSAUREA, 684-93-5, N-BUTYL-N-(4-HYDROXYBUTYL)NITROSAMINE, 3817-11-6, DIMETHY, Carcinogen: DIETHYLNITROSAMINE, 55-18-5, N-METHYL-N-NITROSAUREA, 684-93-5, N-BUTYL-N-(4-HYDROXYBUTYL)NITROSAMINE, 3817-11-6, DIMETHY, 1% IN THE DIET FOR 24 WK BEGINNING 1 DAY POST CARCINOGEN TREATMENT (STUDY DURATION: 28 WK), Strain/Sex: F344/MALE, Target Tissue: Type of Lesion: SMALL INTESTINE: ADENOMA, Dose [Carcinogen]: 100 MG/KG BW DEN ONCE FOLLOWED BY 20 MG/KG BW MNU 4 TIMES AND 0.05% BBN IN DRINKING WATER DURING FIRST 2 WK THEN 40 MG/K) is listed as 33%, 13%, 60%, not significant; the “tumour outcome (control, treated, inhibition, significance)” value (Carcinogen: DIETHYLNITROSAMINE, 55-18-5, N-METHYL-N-NITROSOUREA, 684-93-4, N-BUTYL-N-(4-HYDROXYBUTYL)NITROSAMINE, 3817-11-6, DIMETHY, Carcinogen: DIETHYLNITROSAMINE, 55-18-5, N-METHYL-N-NITROSOUREA, 684-93-4, N-BUTYL-N-(4-HYDROXYBUTYL)NITROSAMINE, 3817-11-6, DIMETHY, 1% IN THE DIET FOR 24 WK BEGINNING 1 DAY POST CARCINOGEN TREATMENT (STUDY DURATION: 28 WK), Strain/Sex: F344/MALE, Target Tissue: Type of Lesion: URINARY BLADDER: CARCINOMA, Dose [Carcinogen]: 100 MG/KG BW DEN ONCE FOLLOWED BY 20 MG/KG BW MNU 4 TIMES AND 0.05% BBN IN DRINKING WATER DURING FIRST 2 WK THEN 40 MG/K) was 7%, 0%, 100%, not significant; the “tumour outcome (control, treated, inhibition, significance)” value (Carcinogen: DIETHYLNITROSAMINE, 55-18-5, N-METHYL-N-NITROSOUREA, 684-93-5, N-BUTYL-N-(4-HYDROXYBUTYL)NITROSAMINE, 3817-11-6, DIMETHY, Carcinogen: DIETHYLNITROSAMINE, 55-18-5, N-METHYL-N-NITROSOUREA, 684-93-5, N-BUTYL-N-(4-HYDROXYBUTYL)NITROSAMINE, 3817-11-6, DIMETHY, 1% IN DIET FOR 24 WK BEGINNING 1 DAY POST CARCINOGEN TREATMENT (STUDY DURATION: 28 WK), Strain/Sex: F344/MALE, Target Tissue: Type of Lesion: THYROID: CARCINOMA, Dose [Carcinogen]: 100 MG/KG BW DEN ONCE FOLLOWED BY 20 MG/KG BW MNU 4 TIMES AND 0.05% BBN IN DRINKING WATER DURING FIRST 2 WK THEN 40 MG/K) is listed as 7%, 0%, 100%, not significant; the “tumour outcome (control, treated, inhibition, significance)” value (Carcinogen: DIETHYLNITROSAMINE, 55-18-5, N-METHYL-N-NITROSOUREA, 684-93-5, N-BUTYL-N-(4-HYDROXYBUTYL)NITROSAMINE, 3817-11-6, DIMETHY, Carcinogen: DIETHYLNITROSAMINE, 55-18-5, N-METHYL-N-NITROSOUREA, 684-93-5, N-BUTYL-N-(4-HYDROXYBUTYL)NITROSAMINE, 3817-11-6, DIMETHY, 1% IN DIET FOR 30 DAYS BEGINNING 1 DAY PRIOR TO CARCINOGEN TREATMENT (STUDY DURATION: 28 WK), Strain/Sex: F344/MALE, Target Tissue: Type of Lesion: URINARY BLADDER: PAPILLOMA, Dose [Carcinogen]: 100 MG/KG BW DEN ONCE FOLLOWED BY 20 MG/KG BW MNU 4 TIMES AND 0.05% BBN IN DRINKING WATER DURING FIRST 2 WK THEN 40 MG/K) is 7%, 7%, 0%, not significant. Further, the “tumour outcome (control, treated, inhibition, significance)” value reads like this: (Carcinogen: DIETHYLNITROSAMINE, 55-18-5, N-METHYL-N-NITROSOUREA, 684-93-5, N-BUTYL-N-(4-HYDROXYBUTYL)NITROSAMINE, 3817-11-6, DIMETHY, Carcinogen: DIETHYLNITROSAMINE, 55-18-5, N-METHYL-N-NITROSOUREA, 684-93-5, N-BUTYL-N-(4-HYDROXYBUTYL)NITROSAMINE, 3817-11-6, DIMETHY, 1% IN THE DIET FOR 24 WK BEGINNING 1 DAY POST CARCINOGEN TREATMENT ( STUDY DURATION: 28 WK), Strain/Sex: F344/MALE, Target Tissue: Type of Lesion: LARGE INTESTINE: CARCINOMA, Dose [Carcinogen]: 100 MG/KG BW DEN ONCE FOLLOWED BY 20 MG/KG BW MNU 4 TIMES AND 0.05% BBN IN DRINKING WATER DURING FIRST 2 WK THEN 40 MG/K) 7%, 13%, -86%, not significant; (Carcinogen: DIETHYLNITROSAMINE, 55-18-5, N-METHYL-N-NITROSOUREA, 684-93-5, N-BUTYL-N-(4-HYDROXYBUTYL)NITROSAMINE, 3817-11-6, DIMETHY, Carcinogen: DIETHYLNITROSAMINE, 55-18-5, N-METHYL-N-NITROSOUREA, 684-93-5, N-BUTYL-N-(4-HYDROXYBUTYL)NITROSAMINE, 3817-11-6, DIMETHY, 1% IN THE DIET FOR 24 WK BEGINNING 1 DAY POST CARCINOGEN TREATMENT (STUDY DURATION: 28 WK), Strain/Sex: F344/MALE, Target Tissue: Type of Lesion: LARGE INTESTINE: ADENOMA, Dose [Carcinogen]: 100 MG/KG BW DEN ONCE FOLLOWED BY 20 MG/KG BW MNU 4 TIMES AND 0.05% BBN IN DRINKING WATER DURING FIRST 2 WK THEN 40 MG/K) 27%, 47%, -74%, not significant.
